From ChEMBL document CHEMBL4673300, “Fragment-Based Discovery of Novel Non-Hydroxamate LpxC Inhibitors with Antibacterial Activity” (J Med Chem, 2020)
In brackets after ≈: the same amount, converted by molar mass. Each block holds one compound with its values, some of them ahead of it. Activity calls are given as the source filed them. The rule behind the calls is not given here.

How the values were obtained:
[1] = target: T1, UDP-3-O-acyl-N-acetylglucosamine deacetylase (Pseudomonas aeruginosa (strain ATCC 15692 / PAO1 / 1C / PRS 101 / LMG12228), UniProt P47205); test: Inhibition of histidine-tagged Pseudomonas aeruginosa LpxC (1-303) expressed in Escherichia coli BL21 (DE3) using UDP-3-O-(R-3-hydroxydecanoyl)-N-acetylglucosamine as substrate measured after 60 mins by Fluorescence plate reader analysis
T1 sequence (P47205 whole entry): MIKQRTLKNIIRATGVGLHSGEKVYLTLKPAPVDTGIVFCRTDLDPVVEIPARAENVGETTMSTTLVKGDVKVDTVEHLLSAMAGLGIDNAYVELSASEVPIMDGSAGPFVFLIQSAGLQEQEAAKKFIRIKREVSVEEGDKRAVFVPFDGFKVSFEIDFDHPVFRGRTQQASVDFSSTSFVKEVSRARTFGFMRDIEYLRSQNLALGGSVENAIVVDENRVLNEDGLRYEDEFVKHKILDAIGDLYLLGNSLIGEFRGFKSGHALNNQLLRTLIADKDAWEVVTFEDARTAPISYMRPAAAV

[2] = target: T1, UDP-3-O-acyl-N-acetylglucosamine deacetylase; test: Displacement of (S)-N-(2-(N-(3-biphenyl-4-ylcarboxamido-4-(hydroxyamino)-4-oxobutyl)sulfamoyl)ethyl)-3',6'-dihydroxy-3-oxo-3H-spiro[isobenzofuran-1,9'-xanthene]-5-carboxamide fluorescent probe from histidine tagged Pseudomonas aeruginosa LpxC (1-303) expressed in Escherichia coli BL21 (DE3) preincubated for 30 mins followed by addition of fluorscein probe measured after 2 hrs by fluorescence …
Escherichia coli [3] = test: Antibacterial activity against Escherichia coli ATCC 25922 in presence of efflux pump inhibitor phenylalanine-arginine beta-naphthylamideby CLSI method; format: functional
Pseudomonas aeruginosa [4] = test: Antibacterial activity against Pseudomonas aeruginosa ATCC 27853 in presence of efflux pump inhibitor phenylalanine-arginine beta-naphthylamide by CLSI method; format: functional
[5] = target: T1, UDP-3-O-acyl-N-acetylglucosamine deacetylase; test: Inhibition of histidine-tagged Pseudomonas aeruginosa LpxC (1-303) expressed in Escherichia coli BL21 (DE3) using UDP-3-O-(R-3-hydroxydecanoyl)-N-acetylglucosamine as substrate measured after 60 mins by LC-MS/MS analysis
Escherichia coli [6] = test: Antibacterial activity against Escherichia coli ATCC 25922 by CLSI method; format: functional
Pseudomonas aeruginosa [7] = test: Antibacterial activity against Pseudomonas aeruginosa ATCC 27853 by CLSI method; format: functional
Stromelysin-1 = Stromelysin-1 (Homo sapiens, UniProt P08254); test: Inhibition of human MMP-3 by fluorometric assay
Pseudomonas aeruginosa [8] = test: Antibacterial activity against Pseudomonas aeruginosa 5567 in absence of human serum albumin by CLSI method; format: functional
[9] = target: 72 kDa type IV collagenase (Homo sapiens, UniProt P08253); test: Inhibition of human MMP-2 by fluorometric assay
Klebsiella pneumoniae = test: Antibacterial activity against Klebsiella pneumoniae ATCC 13883 by CLSI method; format: functional
Pseudomonas aeruginosa [10] = test: Antibacterial activity against Pseudomonas aeruginosa 5567 in presence of human serum albumin by CLSI method; format: functional
[11] = target: Matrix metalloproteinase-9 (Homo sapiens, UniProt P14780); test: Inhibition of human MMP-9 by fluorometric assay
Chain of Matrix metalloproteinase-9 (P14780 whole entry): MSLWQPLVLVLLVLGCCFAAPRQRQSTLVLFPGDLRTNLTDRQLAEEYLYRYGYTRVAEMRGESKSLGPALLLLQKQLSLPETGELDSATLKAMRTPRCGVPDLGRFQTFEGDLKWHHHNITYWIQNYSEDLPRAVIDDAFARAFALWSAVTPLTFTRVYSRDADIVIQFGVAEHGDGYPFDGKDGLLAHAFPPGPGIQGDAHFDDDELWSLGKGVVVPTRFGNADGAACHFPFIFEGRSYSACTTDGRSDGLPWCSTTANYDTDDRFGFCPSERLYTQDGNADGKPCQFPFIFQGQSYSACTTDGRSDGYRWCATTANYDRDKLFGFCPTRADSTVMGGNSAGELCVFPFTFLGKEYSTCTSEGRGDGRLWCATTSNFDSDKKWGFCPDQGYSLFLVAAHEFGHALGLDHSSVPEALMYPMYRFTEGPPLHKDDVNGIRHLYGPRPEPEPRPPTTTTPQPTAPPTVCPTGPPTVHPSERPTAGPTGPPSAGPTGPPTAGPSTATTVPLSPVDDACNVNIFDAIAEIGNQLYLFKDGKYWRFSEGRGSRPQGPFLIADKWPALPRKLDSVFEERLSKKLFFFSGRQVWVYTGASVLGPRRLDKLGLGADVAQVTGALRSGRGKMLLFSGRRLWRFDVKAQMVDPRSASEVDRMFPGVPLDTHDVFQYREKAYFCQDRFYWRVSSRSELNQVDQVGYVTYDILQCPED

Chain of Stromelysin-1 (P08254 whole entry): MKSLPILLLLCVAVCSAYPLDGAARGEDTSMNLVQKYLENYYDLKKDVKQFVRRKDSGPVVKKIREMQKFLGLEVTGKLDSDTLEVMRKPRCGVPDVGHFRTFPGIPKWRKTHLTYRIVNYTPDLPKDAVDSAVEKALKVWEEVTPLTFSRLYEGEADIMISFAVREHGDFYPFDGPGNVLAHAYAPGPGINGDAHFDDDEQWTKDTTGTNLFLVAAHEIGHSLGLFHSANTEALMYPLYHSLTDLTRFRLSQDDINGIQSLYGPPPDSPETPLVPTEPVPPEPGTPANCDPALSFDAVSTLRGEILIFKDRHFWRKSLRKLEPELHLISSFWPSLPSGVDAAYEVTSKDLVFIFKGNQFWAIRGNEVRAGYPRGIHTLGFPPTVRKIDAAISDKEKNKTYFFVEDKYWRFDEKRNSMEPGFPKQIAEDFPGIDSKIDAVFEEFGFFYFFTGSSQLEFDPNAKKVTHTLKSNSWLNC
Chain of 72 kDa type IV collagenase (P08253 whole entry): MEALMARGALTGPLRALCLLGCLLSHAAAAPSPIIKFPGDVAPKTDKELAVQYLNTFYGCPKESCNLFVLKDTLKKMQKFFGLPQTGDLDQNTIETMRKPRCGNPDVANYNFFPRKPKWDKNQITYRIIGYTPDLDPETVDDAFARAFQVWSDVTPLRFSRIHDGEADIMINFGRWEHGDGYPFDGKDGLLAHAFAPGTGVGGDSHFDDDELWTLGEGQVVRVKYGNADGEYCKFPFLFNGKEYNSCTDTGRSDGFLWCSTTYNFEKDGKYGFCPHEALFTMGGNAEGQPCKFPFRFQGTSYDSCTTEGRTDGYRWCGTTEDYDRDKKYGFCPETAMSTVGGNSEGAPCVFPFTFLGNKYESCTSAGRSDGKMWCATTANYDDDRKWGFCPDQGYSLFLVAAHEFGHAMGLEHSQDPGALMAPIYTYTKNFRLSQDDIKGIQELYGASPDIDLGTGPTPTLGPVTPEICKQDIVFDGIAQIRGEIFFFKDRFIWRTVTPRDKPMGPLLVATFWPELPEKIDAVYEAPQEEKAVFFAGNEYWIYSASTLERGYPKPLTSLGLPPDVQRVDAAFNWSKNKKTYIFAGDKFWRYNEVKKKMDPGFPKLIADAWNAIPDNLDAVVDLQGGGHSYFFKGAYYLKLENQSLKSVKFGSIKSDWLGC

SMILES: NC[C@@H](N)C(=O)Nc1cccc(OC(F)(F)F)c1
IC50 [5]: 36.7 µM | IC50 [2]: 40.1 µM

SMILES: Clc1ccc(CCCn2ccnc2)cc1
IC50 [1]: 111 µM | IC50 [2]: 125 µM

SMILES: CS(=O)(=O)CC[C@@H](N)C(=O)Nc1cccc(OC(F)(F)F)c1
IC50 [5]: 10 µM | IC50 [2]: 8.97 µM

SMILES: NCC(=O)Nc1cccc(OC(F)(F)F)c1
IC50 [5]: 41.9 µM | IC50 [2]: 54.9 µM

SMILES: N[C@H](CO)C(=O)N1CCC(Cc2ccc(-c3ccccc3)cc2)CC1
IC50 [5]: 0.66 µM

SMILES: N[C@H](CO)C(=O)N1CCC(Cc2ccccc2)CC1
IC50 [5]: 24.9 µM

SMILES: N[C@H](CO)C(=O)N1CCC(Cc2ccc(C#Cc3ccccc3)cc2)CC1
IC50 [5]: 0.034 µM

SMILES: O=C(NO)[C@@H](Cc1ccc2ccccc2c1)NS(=O)(=O)c1ccc2ccccc2c1
IC50 (Stromelysin-1): 0.416 µM | IC50 [9]: 0.0175 µM | IC50 [11]: 0.0972 µM

SMILES: Clc1ccc(CCn2ccnc2)cc1
IC50 [2]: 2780 µM

SMILES: CNC(=O)[C@H](Cc1c[nH]c2ccccc12)NC(=O)[C@@H](CC(=O)NO)CC(C)C [ILOMASTAT]
IC50 (Stromelysin-1): 0.015 µM

SMILES: Clc1ccc(CCCCn2ccnc2)cc1
IC50 [1]: 60.4 µM | IC50 [2]: 43.2 µM

SMILES: CS(=O)(=O)NC[C@@H](N)C(=O)Nc1cccc(OC(F)(F)F)c1
IC50 [5]: 43.8 µM | IC50 [2]: 37.9 µM

SMILES: N[C@H](CC(=O)O)C(=O)Nc1cccc(OC(F)(F)F)c1
IC50 [5]: 11.3 µM | IC50 [2]: 5.69 µM

SMILES: CS(=O)(=O)C[C@@H](N)C(=O)Nc1cccc(OC(F)(F)F)c1
IC50 [5]: > 100 µM | IC50 [2]: > 100 µM

SMILES: N[C@H](CO)C(=O)N1CCC(Cc2ccc(CCc3ccccc3)cc2)CC1
IC50 [5]: 4.53 µM

SMILES: OC(COc1ccccc1)Cn1ccnc1 (racemic)
IC50 [1]: 1130 µM | IC50 [2]: > 2000 µM

SMILES: OCc1nccn1CCCc1ccc(Cl)cc1
IC50 [1]: 108 µM | IC50 [2]: 36.7 µM

SMILES: OC(COc1ccc(Cl)cc1)Cn1ccnc1 (racemic)
IC50 [1]: 466 µM | IC50 [2]: 259 µM

SMILES: Clc1ccc(OCCCn2ccnc2)cc1
IC50 [1]: 144 µM | IC50 [2]: 118 µM

Second part, led by results:

IC50 [1]: 0.884 µM | IC50 [2]: 0.125 µM
SMILES: CC(O)c1nccn1Cc1cc(-c2ccccc2)on1 (racemic)

IC50 [1]: 10.4 µM | IC50 [2]: 6.48 µM
SMILES: CC(O)c1nccn1CCc1ccc(-c2ccccc2)cc1 (racemic)

MIC (Escherichia coli [3]): 16 mg/L | MIC (Pseudomonas aeruginosa [4]): 32 mg/L | IC50 [5]: 0.0221 µM | MIC (Escherichia coli [6]): > 32 mg/L | MIC (Pseudomonas aeruginosa [7]): > 32 mg/L
SMILES: N[C@H](CO)C(=O)N1CCC(Cc2ccc(C#Cc3ccc(CO)cc3)cc2)CC1

IC50 [1]: 2.4 µM | IC50 [2]: 1.76 µM
SMILES: CC(O)c1nccn1CCc1ccc(C#Cc2ccccc2)cc1 (racemic)

IC50 (Stromelysin-1): > 100 µM | IC50 [1]: 0.02 µM | MIC (Pseudomonas aeruginosa [8]): 4 mg/L (≈ 9.7 µM) | IC50 [9]: > 100 µM | MIC (Escherichia coli [6]): 16 mg/L (≈ 38.8 µM) | MIC (Klebsiella pneumoniae): 64 mg/L (≈ 155 µM) | MIC (Pseudomonas aeruginosa [10]): 8 mg/L | MIC (Pseudomonas aeruginosa [7]): 4 mg/L (≈ 9.7 µM) | IC50 [11]: > 100 µM
SMILES: C[C@H](O)c1nccn1Cc1cc(C#Cc2ccc(OCC(N)(CO)CO)cc2)on1

IC50 [1]: 0.00463 µM | MIC (Pseudomonas aeruginosa [8]): 8 mg/L (≈ 18.9 µM) | MIC (Escherichia coli [6]): 1 mg/L (≈ 2.37 µM) | MIC (Klebsiella pneumoniae): 1 mg/L (≈ 2.37 µM) | MIC (Pseudomonas aeruginosa [10]): 64 mg/L | MIC (Pseudomonas aeruginosa [7]): 8 mg/L (≈ 18.9 µM)
SMILES: C[C@H](O)c1nccn1Cc1cc(C#Cc2ccc(OCCCNC3COC3)cc2)on1

IC50 [1]: 0.0475 µM | MIC (Pseudomonas aeruginosa [8]): 64 mg/L (≈ 218 µM) | MIC (Escherichia coli [6]): 16 mg/L (≈ 54.5 µM) | IC50 [2]: 0.0206 µM | MIC (Klebsiella pneumoniae): 32 mg/L (≈ 109 µM) | MIC (Pseudomonas aeruginosa [10]): > 128 mg/L | MIC (Pseudomonas aeruginosa [7]): > 128 mg/L
SMILES: CC(O)c1nccn1Cc1cc(C#Cc2ccccc2)on1 (racemic)

IC50 [1]: 214 µM | IC50 [2]: 39.9 µM
SMILES: CC(O)c1nccn1Cc1ccc(Cl)cc1 (racemic)

IC50 [1]: 0.161 µM | IC50 [2]: 0.0522 µM
SMILES: CC(O)c1nccn1CCCc1ccc(C#Cc2ccccc2)cc1 (racemic)

IC50 [1]: 10.4 µM | IC50 [2]: 0.809 µM
SMILES: CC(O)c1nccn1CCCc1ccc(Cl)cc1 (racemic)

IC50 [1]: 0.00896 µM | MIC (Pseudomonas aeruginosa [8]): 32 mg/L (≈ 91.1 µM) | MIC (Escherichia coli [6]): 2 mg/L (≈ 5.69 µM) | MIC (Klebsiella pneumoniae): 4 mg/L (≈ 11.4 µM) | MIC (Pseudomonas aeruginosa [10]): > 128 mg/L | MIC (Pseudomonas aeruginosa [7]): 64 mg/L (≈ 182 µM)
SMILES: CC(O)c1nccn1Cc1cc(C#Cc2ccc(CCCO)cc2)on1 (racemic)

IC50 [1]: 261 µM | IC50 [2]: 67.8 µM
SMILES: CC(O)c1nccn1CCc1ccc(Cl)cc1 (racemic)

IC50 [1]: 1.4 µM | MIC (Pseudomonas aeruginosa [8]): > 128 mg/L | MIC (Escherichia coli [6]): > 128 mg/L | MIC (Klebsiella pneumoniae): > 128 mg/L | MIC (Pseudomonas aeruginosa [10]): > 128 mg/L | MIC (Pseudomonas aeruginosa [7]): > 128 mg/L
SMILES: C[C@@H](O)c1nccn1Cc1cc(C#Cc2ccc(CCCO)cc2)on1

IC50 [1]: 3.94 µM | IC50 [2]: 0.546 µM
SMILES: CC(O)c1nccn1Cc1ccc(-c2ccccc2)cc1 (racemic)

IC50 (Stromelysin-1): > 100 µM | MIC (Escherichia coli [3]): 1 mg/L | MIC (Pseudomonas aeruginosa [4]): 8 mg/L | IC50 [9]: > 100 µM | MIC (Escherichia coli [6]): 64 mg/L (≈ 132 µM) | MIC (Pseudomonas aeruginosa [7]): 64 mg/L (≈ 132 µM) | IC50 [11]: > 100 µM
SMILES: CS(=O)(=O)C[C@H](O)[C@@H](N)C(=O)N1CCC(Cc2ccc(C#Cc3ccc(CO)cc3)cc2)CC1 (racemic)

IC50 [1]: 0.00403 µM | MIC (Pseudomonas aeruginosa [8]): 16 mg/L (≈ 45.5 µM) | MIC (Escherichia coli [6]): 0.5 mg/L (≈ 1.42 µM) | MIC (Klebsiella pneumoniae): 2 mg/L (≈ 5.69 µM) | MIC (Pseudomonas aeruginosa [10]): > 64 mg/L | MIC (Pseudomonas aeruginosa [7]): 32 mg/L (≈ 91.1 µM)
SMILES: C[C@H](O)c1nccn1Cc1cc(C#Cc2ccc(CCCO)cc2)on1

IC50 [1]: 0.133 µM | IC50 [2]: 0.0269 µM
SMILES: CC(O)c1nccn1CCCc1ccc(-c2ccccc2)cc1 (racemic)

IC50 [1]: 0.00704 µM | MIC (Pseudomonas aeruginosa [8]): 4 mg/L (≈ 9.77 µM) | MIC (Escherichia coli [6]): 2 mg/L (≈ 4.88 µM) | MIC (Klebsiella pneumoniae): 32 mg/L (≈ 78.1 µM) | MIC (Pseudomonas aeruginosa [10]): 16 mg/L | MIC (Pseudomonas aeruginosa [7]): 2 mg/L (≈ 4.88 µM)
SMILES: C[C@H](O)c1nccn1Cc1cc(C#Cc2ccc(OCCCNCCN)cc2)on1

IC50 [1]: 0.00442 µM | MIC (Pseudomonas aeruginosa [8]): 4 mg/L (≈ 9.79 µM) | MIC (Escherichia coli [6]): 4 mg/L (≈ 9.79 µM) | MIC (Klebsiella pneumoniae): 4 mg/L (≈ 9.79 µM) | MIC (Pseudomonas aeruginosa [10]): 16 mg/L | MIC (Pseudomonas aeruginosa [7]): 4 mg/L (≈ 9.79 µM)
SMILES: C[C@H](O)c1nccn1Cc1cc(C#Cc2ccc(OC3CN(CCO)C3)cc2)on1

IC50 [1]: 0.568 µM | IC50 [2]: 0.0929 µM
SMILES: CC(O)c1nccn1Cc1ccc(C#Cc2ccccc2)cc1 (racemic)
Activity (Escherichia coli [3]): inactive
